# Assay results: US4551547A, “Biocidal 2-aryl-1, 3-cyclopentanedione enol ester compounds” (Union Carbide Corporation, priority 1983, dated 1985)
# Experiments:
# Corn = experiment: Post-emergent herbicidal test, corn; assay type: in vivo; set-up: key: 1: no perceptible injury; 2: intermediate degrees of injury; 3: intermediate degrees of injury; 4: intermediate degrees of injury; 5: the plant was dead; conditions: 2500 parts per million, after ten days; for Post Emergent Herbicidal, Corn: Table III; for Post-emergent Herbicidal, Corn: Table II
# In short: (§1)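 Compounds dispersed in acetone/surfactant/water and sprayed at 2500 ppm onto foliage of healthy plants. Plants kept in greenhouse; foliar injury scored visually after ten days on a 1 (no injury) to 5 (dead) scale.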
# [1] = system: Red root pigweed (Amaranthus); experiment: Preliminary herbicide seed germination test (pre-emergent), red root pigweed; assay type: in vivo, Amaranthus retroflexus; set-up: key: 5: no seedling emerged; 4: few seedlings emerged and/or very severe stunting; 3: moderate reduction in stand and/or moderate stunting.; 2: very slight reduction in stand and/or slight stunting; 1: no injury, seedlings appear no different with respect to stand or growth than untreated controls; conditions: ten to twelve days after application
# In short: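 Pre-emergent pot test in the greenhouse with Amaranthus retroflexus seed mixed into soil. About 2 h after planting, 25 mL of aqueous formulation (diluted from a 0.5% w/w acetone/surfactant stock) was applied per pot, with concentration given in ppm. Solvent/emulsifier-only pots served as controls, and effects were scored on a rating scale.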
# Bean = experiment: Post-emergent herbicidal test, bean; assay type: in vivo; set-up: key: 1: no perceptible injury; 2: intermediate degrees of injury; 3: intermediate degrees of injury; 4: intermediate degrees of injury; 5: the plant was dead; conditions: 2500 parts per million, after ten days; for Post Emergent Herbicidal, Bean: Table III; for Post-emergent Herbicidal, Bean: Table II
# In short: as §1
# Crabgrass = experiment: Preliminary herbicide seed germination test (pre-emergent), crabgrass; assay type: in vivo, Digitaria sanguinalis; set-up: key: 5: no seedling emerged; 4: few seedlings emerged and/or very severe stunting; 3: moderate reduction in stand and/or moderate stunting.; 2: very slight reduction in stand and/or slight stunting; 1: no injury, seedlings appear no different with respect to stand or growth than untreated controls; conditions: ten to twelve days after application
# In short: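 Crabgrass (Digitaria sanguinalis) seed-soil mixtures in pots were drenched about 2 h after planting with 25 mL of compound suspension, diluted in water from an acetone/alkylphenoxyethanol-emulsified stock. Each compound was tested at the same ppm concentration. Solvent-emulsifier blanks served as controls; effects were rated visually.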
# Cotton = experiment: Post-emergent herbicidal test, cotton; assay type: in vivo; set-up: key: 1: no perceptible injury; 2: intermediate degrees of injury; 3: intermediate degrees of injury; 4: intermediate degrees of injury; 5: the plant was dead; conditions: 2500 parts per million, after ten days; for Post Emergent Herbicidal, Cotton: Table III; for Post-emergent Herbicidal, Cotton: Table II
# In short: as §1
# Tomato = experiment: Post-emergent herbicidal test, tomato; assay type: in vivo; set-up: key: 1: no perceptible injury; 2: intermediate degrees of injury; 3: intermediate degrees of injury; 4: intermediate degrees of injury; 5: the plant was dead; conditions: 2500 parts per million, after ten days; for Post Emergent Herbicidal, Tomato: Table III; for Post-emergent Herbicidal, Tomato: Table II
# In short: as §1
# [2] = system: two-spotted mite (adults and nymphal stages); experiment: Mite Foliage Spray Test (adults and nymphs); assay type: in vivo, Tetranychus urticae (Koch); set-up: key to Miticidal, Adult: A: Excellent Control; B: Partial Control; No Control; conditions: for LC50: Tetranychus urticae, foliar, Table III, ppm required for a 50 percent kill of mites, read-out: Miticidal LD50, Adult; for Miticidal, Adult: Table II, mortality count after four days
# In short: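 Adult and nymphal mites on potted bean plants, sprayed to run-off (100-110 ml at 40 psi, 30 s) with aqueous dilutions of acetone/alkylphenoxyethanol-emulsified compound; solvent-emulsifier blank as control. Held 4 days at 80±5° F, 50±5% RH, then motile forms counted (living = moves on prodding); values are ppm for 50% kill.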
# Soybean = experiment: Post-emergent herbicidal test, soybean; assay type: in vivo; set-up: key: 1: no perceptible injury; 2: intermediate degrees of injury; 3: intermediate degrees of injury; 4: intermediate degrees of injury; 5: the plant was dead; conditions: 2500 parts per million, after ten days; for Post Emergent Herbicidal, Soybean: Table III; for Post-emergent Herbicidal, Soybean: Table II
# In short: as §1
# Perennial rye grass = experiment: Preliminary herbicide seed germination test (pre-emergent), perennial rye grass; assay type: in vivo, Solium perenne; set-up: key: 5: no seedling emerged; 4: few seedlings emerged and/or very severe stunting; 3: moderate reduction in stand and/or moderate stunting.; 2: very slight reduction in stand and/or slight stunting; 1: no injury, seedlings appear no different with respect to stand or growth than untreated controls; conditions: ten to twelve days after application
# In short: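 Compounds formulated in acetone with alkylphenoxyethanol surfactant and diluted in water to ppm test levels. Perennial rye grass seed-soil mixtures potted and drenched with 25 mL formulation about 2 h after planting, in the greenhouse. Controls received solvent and emulsifier without compound, and pre-emergent effects were rated on a scale.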
SMILES,"Post Emergent Herbicidal, Corn (Corn)","Pre-emergent Herbicidal, Amaranthus ([1]; Table III)","Post Emergent Herbicidal, Bean (Bean)","Pre-emergent Herbicidal, Crabgrass (Crabgrass; Table III)","Post Emergent Herbicidal, Cotton (Cotton)","Post Emergent Herbicidal, Tomato (Tomato)",LC50 [2],"Post Emergent Herbicidal, Soybean (Soybean)","Pre-emergent Herbicidal, Rye (Perennial rye grass; Table III)","Post-emergent Herbicidal, Corn (Corn)","Pre-emergent Herbicidal, Amaranthus ([1]; Table II)","Post-emergent Herbicidal, Bean (Bean)","Pre-emergent Herbicidal, Crabgrass (Crabgrass; Table II)","Post-emergent Herbicidal, Cotton (Cotton)","Post-emergent Herbicidal, Tomato (Tomato)","Miticidal, Adult [2]","Post-emergent Herbicidal, Soybean (Soybean)","Pre-emergent Herbicidal, Rye (Perennial rye grass; Table II)"
CCCCC(CC)C(=O)OC1=C(c2ccccc2C)C(=O)CC1 (stereo not drawn) [drawing 21],2,3,2,3,2,2,220 µg/mL,2,5,–,–,–,–,–,–,–,–,–
Cc1ccc(C)c(C2=C(OC(=O)C(C)(C)C)C3CCCCC3C2=O)c1 (stereo not drawn) [Compound 31],–,–,–,–,–,–,–,–,–,2,1,1,1,1,1,A,2,1
CC(=O)OC1=C(c2cc(C)ccc2C)C(=O)CC1 [Compound 11],–,–,–,–,–,–,–,–,–,2,3,2,1,2,3,A,2,4
CCCCCCCCCCCCCCCC(=O)OC1=C(c2ccccc2C)C(=O)CC1 [Compound 8],–,–,–,–,–,–,–,–,–,3,3,3,2,2,1,A,3,2
Cc1ccccc1C1=C(OC(=O)C(C)(C)C)C2CCCCC2C1=O (stereo not drawn) [drawing 24],5,2,2,3,3,1,15 µg/mL,3,5,–,–,–,–,–,–,–,–,–
Cc1ccc(C)c(C2=C(OC(=O)C(C)C)CCC2=O)c1 [Compound 12],–,–,–,–,–,–,–,–,–,2,1,2,1,3,3,B,3,1
CCCCCCCCCCCCCCCC(=O)OC1=C(c2ccccc2C)C(=O)C2CCCCC12 (stereo not drawn) [Compound 24],–,–,–,–,–,–,–,–,–,2,2,1,3,2,1,A,2,4
